Assays:
[1] = target: T1, Androgen receptor (Rattus norvegicus, UniProt P15207); format: functional
T1 sequence (P15207 whole entry): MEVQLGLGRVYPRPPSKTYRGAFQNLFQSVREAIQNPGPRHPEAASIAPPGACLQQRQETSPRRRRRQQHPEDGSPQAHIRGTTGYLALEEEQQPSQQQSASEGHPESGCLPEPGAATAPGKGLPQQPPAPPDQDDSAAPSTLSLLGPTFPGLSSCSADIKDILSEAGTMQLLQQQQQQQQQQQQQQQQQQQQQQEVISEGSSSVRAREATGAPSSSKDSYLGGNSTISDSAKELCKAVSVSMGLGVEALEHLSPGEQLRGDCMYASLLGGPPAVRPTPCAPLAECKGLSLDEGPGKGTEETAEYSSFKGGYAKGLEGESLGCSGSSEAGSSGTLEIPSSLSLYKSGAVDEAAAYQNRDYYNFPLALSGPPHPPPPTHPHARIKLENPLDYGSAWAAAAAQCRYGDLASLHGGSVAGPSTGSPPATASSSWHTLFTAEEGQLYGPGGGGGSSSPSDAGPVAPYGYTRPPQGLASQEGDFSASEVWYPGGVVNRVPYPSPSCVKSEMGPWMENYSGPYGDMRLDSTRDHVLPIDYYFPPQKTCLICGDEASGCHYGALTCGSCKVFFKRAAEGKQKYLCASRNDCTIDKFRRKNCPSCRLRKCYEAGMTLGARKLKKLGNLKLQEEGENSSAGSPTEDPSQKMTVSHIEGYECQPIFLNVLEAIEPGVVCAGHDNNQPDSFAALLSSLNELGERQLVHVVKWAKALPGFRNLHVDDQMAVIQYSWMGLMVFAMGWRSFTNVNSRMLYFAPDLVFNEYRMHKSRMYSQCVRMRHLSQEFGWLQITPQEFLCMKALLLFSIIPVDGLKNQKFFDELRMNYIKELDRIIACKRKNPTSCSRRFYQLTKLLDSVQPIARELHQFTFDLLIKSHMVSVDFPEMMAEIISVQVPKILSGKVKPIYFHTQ

[2] = target: T1, Androgen receptor; format: functional; remark: listed apart in the source
[3] = target: Gamma-aminobutyric acid receptor subunit alpha-1/alpha-2/beta-2/gamma-2 (Homo sapiens, UniProt P14867+P18507+P47869+P47870); format: functional, cell-based
Gamma-aminobutyric acid receptor subunit alpha-1/alpha-2/beta-2/gamma-2, sequence (P14867 whole entry): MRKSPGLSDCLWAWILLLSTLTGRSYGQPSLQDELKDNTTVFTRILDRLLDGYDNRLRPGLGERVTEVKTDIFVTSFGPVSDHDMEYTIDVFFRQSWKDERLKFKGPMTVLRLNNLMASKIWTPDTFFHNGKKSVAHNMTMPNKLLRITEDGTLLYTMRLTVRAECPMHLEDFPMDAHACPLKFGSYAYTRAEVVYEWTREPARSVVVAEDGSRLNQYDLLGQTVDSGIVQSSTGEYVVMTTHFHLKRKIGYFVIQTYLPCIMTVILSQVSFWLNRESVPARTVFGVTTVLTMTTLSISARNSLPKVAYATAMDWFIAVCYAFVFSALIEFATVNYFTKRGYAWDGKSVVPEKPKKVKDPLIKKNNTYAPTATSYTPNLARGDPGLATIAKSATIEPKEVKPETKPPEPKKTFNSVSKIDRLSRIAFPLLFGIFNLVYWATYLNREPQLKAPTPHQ
Gamma-aminobutyric acid receptor subunit alpha-1/alpha-2/beta-2/gamma-2, sequence (P47870 whole entry): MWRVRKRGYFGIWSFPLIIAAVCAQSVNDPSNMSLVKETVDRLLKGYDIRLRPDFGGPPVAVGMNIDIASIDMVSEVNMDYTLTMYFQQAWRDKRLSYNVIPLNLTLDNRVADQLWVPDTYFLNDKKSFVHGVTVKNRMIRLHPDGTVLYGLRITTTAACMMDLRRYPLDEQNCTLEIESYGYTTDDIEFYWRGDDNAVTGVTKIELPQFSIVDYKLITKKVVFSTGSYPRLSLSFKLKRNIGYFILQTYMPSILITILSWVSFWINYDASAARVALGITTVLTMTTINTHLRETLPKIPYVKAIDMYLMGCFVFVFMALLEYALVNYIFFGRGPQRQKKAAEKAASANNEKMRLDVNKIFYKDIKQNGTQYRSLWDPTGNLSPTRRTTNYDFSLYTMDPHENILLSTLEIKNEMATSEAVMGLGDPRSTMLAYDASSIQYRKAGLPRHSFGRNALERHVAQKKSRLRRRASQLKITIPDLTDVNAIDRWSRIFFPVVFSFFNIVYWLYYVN
Gamma-aminobutyric acid receptor subunit alpha-1/alpha-2/beta-2/gamma-2, sequence (P18507 whole entry): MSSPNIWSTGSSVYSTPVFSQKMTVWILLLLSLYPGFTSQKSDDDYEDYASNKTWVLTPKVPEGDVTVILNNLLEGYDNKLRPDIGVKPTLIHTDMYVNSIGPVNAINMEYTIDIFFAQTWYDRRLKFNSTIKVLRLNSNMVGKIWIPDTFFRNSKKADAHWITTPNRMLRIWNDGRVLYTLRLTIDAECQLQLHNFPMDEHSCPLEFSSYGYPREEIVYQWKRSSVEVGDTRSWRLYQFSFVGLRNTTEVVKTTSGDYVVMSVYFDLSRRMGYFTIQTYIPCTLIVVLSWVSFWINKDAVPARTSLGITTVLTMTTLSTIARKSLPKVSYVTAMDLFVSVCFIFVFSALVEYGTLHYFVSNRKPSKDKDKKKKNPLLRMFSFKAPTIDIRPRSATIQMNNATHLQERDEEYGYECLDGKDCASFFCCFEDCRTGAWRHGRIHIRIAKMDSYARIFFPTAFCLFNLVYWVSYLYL
Gamma-aminobutyric acid receptor subunit alpha-1/alpha-2/beta-2/gamma-2, sequence (P47869 whole entry): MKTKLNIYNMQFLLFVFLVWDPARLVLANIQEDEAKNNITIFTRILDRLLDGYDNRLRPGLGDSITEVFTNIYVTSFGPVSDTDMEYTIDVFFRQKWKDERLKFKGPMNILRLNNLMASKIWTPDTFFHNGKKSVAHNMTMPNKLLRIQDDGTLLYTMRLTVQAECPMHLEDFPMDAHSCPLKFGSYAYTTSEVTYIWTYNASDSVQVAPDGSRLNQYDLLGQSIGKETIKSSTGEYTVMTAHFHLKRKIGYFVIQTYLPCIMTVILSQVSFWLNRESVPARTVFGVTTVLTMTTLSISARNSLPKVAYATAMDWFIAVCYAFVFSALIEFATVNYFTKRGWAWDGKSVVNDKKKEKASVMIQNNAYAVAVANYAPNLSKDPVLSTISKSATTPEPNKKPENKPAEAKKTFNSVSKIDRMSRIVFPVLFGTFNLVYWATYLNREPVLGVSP

[4] = target: T2, D(4) dopamine receptor (Homo sapiens, UniProt P21917)
T2 sequence (P21917 whole entry): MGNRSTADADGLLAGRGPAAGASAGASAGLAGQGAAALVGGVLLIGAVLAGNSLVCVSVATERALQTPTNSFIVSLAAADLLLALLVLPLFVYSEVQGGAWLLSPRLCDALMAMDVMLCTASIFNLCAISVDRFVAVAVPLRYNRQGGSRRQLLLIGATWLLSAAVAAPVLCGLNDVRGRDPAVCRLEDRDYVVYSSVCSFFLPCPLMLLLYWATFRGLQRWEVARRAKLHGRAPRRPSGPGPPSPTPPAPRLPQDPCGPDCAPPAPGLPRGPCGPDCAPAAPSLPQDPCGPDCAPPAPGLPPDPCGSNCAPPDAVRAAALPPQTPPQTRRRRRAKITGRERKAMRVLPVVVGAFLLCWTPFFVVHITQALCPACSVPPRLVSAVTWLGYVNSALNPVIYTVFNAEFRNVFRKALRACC

[5] = target: T3, B1 bradykinin receptor (Homo sapiens, UniProt P46663)
T3 sequence (P46663 whole entry): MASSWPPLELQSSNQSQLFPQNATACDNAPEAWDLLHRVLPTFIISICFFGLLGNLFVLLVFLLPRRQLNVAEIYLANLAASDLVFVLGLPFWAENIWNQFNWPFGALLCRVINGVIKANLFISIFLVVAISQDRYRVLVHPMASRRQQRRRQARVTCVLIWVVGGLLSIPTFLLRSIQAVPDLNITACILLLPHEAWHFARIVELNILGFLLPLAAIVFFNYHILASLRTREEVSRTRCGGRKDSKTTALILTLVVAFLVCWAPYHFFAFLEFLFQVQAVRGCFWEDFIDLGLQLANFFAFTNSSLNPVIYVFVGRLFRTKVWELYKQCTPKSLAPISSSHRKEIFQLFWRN

[6] = target: Glucagon receptor (Homo sapiens, UniProt P47871)
Glucagon receptor, sequence (P47871 whole entry): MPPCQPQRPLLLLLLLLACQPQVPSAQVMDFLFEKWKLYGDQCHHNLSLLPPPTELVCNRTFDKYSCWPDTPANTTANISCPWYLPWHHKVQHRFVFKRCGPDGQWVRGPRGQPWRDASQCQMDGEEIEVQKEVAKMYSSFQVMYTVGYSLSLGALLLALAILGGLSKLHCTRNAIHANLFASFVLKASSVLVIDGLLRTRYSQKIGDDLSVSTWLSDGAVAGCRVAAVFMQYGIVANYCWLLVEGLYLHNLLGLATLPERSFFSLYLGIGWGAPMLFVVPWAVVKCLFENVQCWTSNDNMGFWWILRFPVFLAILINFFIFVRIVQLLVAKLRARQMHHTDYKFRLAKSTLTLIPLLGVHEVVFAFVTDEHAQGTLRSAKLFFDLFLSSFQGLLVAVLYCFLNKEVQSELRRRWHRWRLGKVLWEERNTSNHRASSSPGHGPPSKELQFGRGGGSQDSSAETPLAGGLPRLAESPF

[7] = target: T4, Endothelin receptor type B (Homo sapiens, UniProt P24530)
T4 sequence (P24530 whole entry): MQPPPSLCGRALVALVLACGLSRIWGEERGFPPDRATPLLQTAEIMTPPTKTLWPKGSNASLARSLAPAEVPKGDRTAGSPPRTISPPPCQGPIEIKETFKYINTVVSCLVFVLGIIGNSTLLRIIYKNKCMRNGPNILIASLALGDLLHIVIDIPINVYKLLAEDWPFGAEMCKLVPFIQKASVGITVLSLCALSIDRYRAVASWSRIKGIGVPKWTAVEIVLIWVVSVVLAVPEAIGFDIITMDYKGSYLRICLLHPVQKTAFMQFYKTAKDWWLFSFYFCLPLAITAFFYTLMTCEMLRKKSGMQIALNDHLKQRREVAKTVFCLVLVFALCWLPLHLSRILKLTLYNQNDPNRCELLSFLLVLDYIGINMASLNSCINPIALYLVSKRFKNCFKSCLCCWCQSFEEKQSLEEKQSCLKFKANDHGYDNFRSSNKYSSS

[8] = target: 5-hydroxytryptamine receptor 6 (Homo sapiens, UniProt P50406)
[9] = target: Voltage-dependent N-type calcium channel subunit alpha-1B (Rattus norvegicus, UniProt Q02294); format: functional
Voltage-dependent N-type calcium channel subunit alpha-1B, sequence (Q02294 whole entry): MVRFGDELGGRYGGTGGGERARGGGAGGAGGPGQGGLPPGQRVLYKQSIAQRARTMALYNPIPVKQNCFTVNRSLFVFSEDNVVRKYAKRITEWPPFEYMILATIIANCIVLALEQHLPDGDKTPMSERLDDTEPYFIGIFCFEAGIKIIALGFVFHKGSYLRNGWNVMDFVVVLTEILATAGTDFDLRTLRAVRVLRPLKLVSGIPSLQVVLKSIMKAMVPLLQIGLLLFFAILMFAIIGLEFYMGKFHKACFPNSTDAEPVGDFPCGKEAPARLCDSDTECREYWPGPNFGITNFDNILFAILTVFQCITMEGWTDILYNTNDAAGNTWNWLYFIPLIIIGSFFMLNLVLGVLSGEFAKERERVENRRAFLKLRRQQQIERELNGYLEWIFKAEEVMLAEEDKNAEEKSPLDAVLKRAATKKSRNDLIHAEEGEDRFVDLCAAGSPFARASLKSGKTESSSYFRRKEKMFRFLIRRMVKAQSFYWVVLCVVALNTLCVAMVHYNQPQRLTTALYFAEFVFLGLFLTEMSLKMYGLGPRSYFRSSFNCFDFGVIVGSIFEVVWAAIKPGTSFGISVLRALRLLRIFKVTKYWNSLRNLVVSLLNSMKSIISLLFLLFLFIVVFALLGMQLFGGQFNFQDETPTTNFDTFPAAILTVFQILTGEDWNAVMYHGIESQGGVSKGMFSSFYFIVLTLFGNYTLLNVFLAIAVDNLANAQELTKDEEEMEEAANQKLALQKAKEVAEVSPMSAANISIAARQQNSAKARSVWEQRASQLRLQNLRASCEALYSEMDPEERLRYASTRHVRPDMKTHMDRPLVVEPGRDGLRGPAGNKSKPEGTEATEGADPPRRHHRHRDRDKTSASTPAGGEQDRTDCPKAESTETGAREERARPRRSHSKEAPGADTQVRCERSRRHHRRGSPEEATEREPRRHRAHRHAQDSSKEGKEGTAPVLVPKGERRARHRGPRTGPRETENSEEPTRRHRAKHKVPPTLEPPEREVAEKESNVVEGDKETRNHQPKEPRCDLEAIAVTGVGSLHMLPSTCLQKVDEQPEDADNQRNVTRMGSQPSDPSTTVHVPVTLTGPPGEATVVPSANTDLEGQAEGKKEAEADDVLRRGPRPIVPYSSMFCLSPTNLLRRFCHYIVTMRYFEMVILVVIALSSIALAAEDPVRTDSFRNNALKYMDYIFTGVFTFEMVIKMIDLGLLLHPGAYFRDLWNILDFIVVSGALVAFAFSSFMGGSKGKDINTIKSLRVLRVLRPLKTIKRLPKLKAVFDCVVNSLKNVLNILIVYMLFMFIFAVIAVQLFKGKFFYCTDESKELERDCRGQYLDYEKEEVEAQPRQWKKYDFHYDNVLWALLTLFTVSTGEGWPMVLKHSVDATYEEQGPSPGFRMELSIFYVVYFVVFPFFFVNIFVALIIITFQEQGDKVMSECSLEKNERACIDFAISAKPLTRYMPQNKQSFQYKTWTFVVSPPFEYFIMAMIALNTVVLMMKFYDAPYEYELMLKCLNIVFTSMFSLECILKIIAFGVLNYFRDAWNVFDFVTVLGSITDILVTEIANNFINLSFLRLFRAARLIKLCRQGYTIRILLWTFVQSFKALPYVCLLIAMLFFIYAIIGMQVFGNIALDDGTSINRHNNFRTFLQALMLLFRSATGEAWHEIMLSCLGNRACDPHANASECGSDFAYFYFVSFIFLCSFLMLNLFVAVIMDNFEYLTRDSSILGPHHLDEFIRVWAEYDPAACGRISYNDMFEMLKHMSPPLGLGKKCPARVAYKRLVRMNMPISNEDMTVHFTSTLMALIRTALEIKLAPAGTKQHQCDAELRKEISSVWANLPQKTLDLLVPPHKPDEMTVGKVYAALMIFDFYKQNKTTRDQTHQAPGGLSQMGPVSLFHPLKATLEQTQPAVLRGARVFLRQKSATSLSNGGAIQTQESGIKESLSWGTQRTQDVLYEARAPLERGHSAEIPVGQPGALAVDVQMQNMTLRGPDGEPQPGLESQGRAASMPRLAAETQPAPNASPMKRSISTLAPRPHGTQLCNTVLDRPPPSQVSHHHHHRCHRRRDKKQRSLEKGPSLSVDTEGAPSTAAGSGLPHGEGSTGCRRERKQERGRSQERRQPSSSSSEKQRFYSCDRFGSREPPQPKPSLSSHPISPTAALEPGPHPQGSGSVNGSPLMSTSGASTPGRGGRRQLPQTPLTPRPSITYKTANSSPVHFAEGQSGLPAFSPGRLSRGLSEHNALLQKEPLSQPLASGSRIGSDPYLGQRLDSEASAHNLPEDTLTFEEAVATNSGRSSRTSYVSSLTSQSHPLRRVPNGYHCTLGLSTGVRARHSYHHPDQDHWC

[10] = target: T5, Alpha-2A adrenergic receptor (Homo sapiens, UniProt P08913)
T5 sequence (P08913 whole entry): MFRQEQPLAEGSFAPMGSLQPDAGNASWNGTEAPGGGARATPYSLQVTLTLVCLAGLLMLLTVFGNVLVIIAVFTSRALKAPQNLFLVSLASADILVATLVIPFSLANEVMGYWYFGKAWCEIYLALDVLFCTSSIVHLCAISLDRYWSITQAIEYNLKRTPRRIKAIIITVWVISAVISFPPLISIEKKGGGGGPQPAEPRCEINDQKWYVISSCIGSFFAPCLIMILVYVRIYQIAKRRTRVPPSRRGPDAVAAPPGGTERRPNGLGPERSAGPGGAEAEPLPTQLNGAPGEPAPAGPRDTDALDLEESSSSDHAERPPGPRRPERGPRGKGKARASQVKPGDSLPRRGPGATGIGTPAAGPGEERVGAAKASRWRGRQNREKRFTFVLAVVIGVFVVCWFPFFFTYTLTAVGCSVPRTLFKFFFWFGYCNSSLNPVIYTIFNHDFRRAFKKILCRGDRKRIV
Further: assay procedure not described here.

Row | Compound | AC50 [1] | AC50 [2] | AC50 [3] | AC50 [4] | AC50 [5] | AC50 [6] | AC50 [7] | AC50 [8] | AC50 [9] | AC50 [10]
1 | C[N+](C)(C)CCOP(=O)([O-])OC[C@H](O)CO | > 30 µM | > 30 µM | – | – | – | – | – | – | – | –
2 | CN(C)C/C=C/C(=O)Nc1cc2c(Nc3ccc(F)c(Cl)c3)ncnc2cc1O[C@H]1CCOC1 [AFATINIB] | > 30 µM | > 30 µM | > 30 µM | – | – | – | – | – | – | –
3 | CCC1(c2ccc(N)cc2)CCC(=O)NC1=O (centres undefined) [AMINOGLUTETHIMIDE] | > 30 µM | > 30 µM | > 30 µM | – | – | – | – | – | – | –
4 | O=C(/C=C/c1cccc(S(=O)(=O)Nc2ccccc2)c1)NO [BELINOSTAT] | – | – | – | > 10 µM | > 10 µM | > 10 µM | > 10 µM | 2.47 µM | > 10 µM | > 10 µM
5 | CC(O)(CS(=O)(=O)c1ccc(F)cc1)C(=O)Nc1ccc(C#N)c(C(F)(F)F)c1 (centres undefined) [BICALUTAMIDE] | – | – | – | > 10 µM | > 30 µM | > 30 µM | > 30 µM | > 10 µM | > 10 µM | > 10 µM
6 | O=C(O)COCCN1CCN(C(c2ccccc2)c2ccc(Cl)cc2)CC1 (centres undefined) [CETIRIZINE] | – | – | – | > 10 µM | > 30 µM | > 30 µM | > 30 µM | – | > 10 µM | > 10 µM
7 | NC[C@H]1CC[C@H](C(=O)Oc2ccc(CCC(=O)O)cc2)CC1 [CETRAXATE] | – | – | > 30 µM | – | – | – | – | – | – | –
8 | CC(=O)O[C@]1(C(C)=O)CC[C@H]2[C@@H]3C=C(Cl)C4=CC(=O)[C@@H]5C[C@@H]5[C@]4(C)[C@H]3CC[C@@]21C [CYPROTERONE ACETATE] | – | – | – | – | – | – | – | – | > 10 µM | > 10 µM
9 | C[C@@H]1C[C@H]2[C@@H]3C[C@H](F)C4=CC(=O)C=C[C@]4(C)[C@@]3(F)[C@@H](O)C[C@]2(C)[C@@]1(OC(=O)c1ccco1)C(=O)SCF [FLUTICASONE FUROATE] | – | – | – | > 10 µM | > 10 µM | > 10 µM | > 10 µM | > 10 µM | > 10 µM | > 10 µM
10 | CNCCc1ccc(OC(=O)C(C)C)c(OC(=O)C(C)C)c1 [IBOPAMINE] | > 30 µM | > 30 µM | > 30 µM | – | – | – | – | – | – | –
11 | CN(C)CCCN1c2ccccc2CCc2ccccc21 [IMIPRAMINE] | – | – | – | 5.56 µM | > 30 µM | > 30 µM | > 30 µM | 0.313 µM | > 10 µM | > 10 µM
12 | CCOC(=O)C1=C(C)NC(C)=C(C(=O)OCC)C1c1ccccc1/C=C/C(=O)OC(C)(C)C [LACIDIPINE] | > 30 µM | > 30 µM | – | – | – | – | – | – | – | –
13 | CN(Cc1cnc2nc(N)nc(N)c2n1)c1ccc(C(=O)N[C@@H](CCC(=O)O)C(=O)O)cc1 [METHOTREXATE] | – | – | – | – | > 30 µM | > 30 µM | > 30 µM | – | > 10 µM | > 10 µM
14 | OC[C@H]1O[C@@H](n2cnc3c2NC=NC[C@H]3O)C[C@@H]1O [PENTOSTATIN] | – | – | > 30 µM | – | – | – | – | – | – | –
15 | CC(C)c1cccc(C(C)C)c1O [PROPOFOL] | – | > 30 µM | 2 µM | – | – | – | – | – | – | –
16 | CN[C@@H](C)[C@@H](O)c1ccccc1 [PSEUDOEPHEDRINE] | – | – | – | > 10 µM | > 30 µM | > 30 µM | > 30 µM | – | > 10 µM | > 10 µM
17 | CCCN1CC(NS(=O)(=O)N(CC)CC)CC2Cc3c(O)cccc3CC21 (centres undefined) [QUINAGOLIDE] | > 30 µM | > 30 µM | – | – | – | – | – | – | – | –
18 | O=C1OC(OC(=O)c2cccnc2Nc2cccc(C(F)(F)F)c2)c2ccccc21 (centres undefined) [TALNIFLUMATE] | > 30 µM | > 30 µM | > 30 µM | – | – | – | – | – | – | –
19 | O=S1(=O)CCN(CN2CCS(=O)(=O)NC2)CN1 [TAUROLIDINE] | > 30 µM | > 30 µM | > 30 µM | – | – | – | – | – | – | –
20 | CCOC(=O)c1c(CSc2ccccc2)n(C)c2cc(Br)c(O)c(CN(C)C)c12 [UMIFENOVIR] | > 30 µM | > 30 µM | – | – | – | – | – | – | – | –
